{"source": "patent EP0991643B1", "about": "(SCHERING CORPORATION, priority 1997, dated 1998)"}
{"target": "T1, partially purified rat brain farnesyl protein transferase (FPT) (Rattus norvegicus, UniProt Q02293+Q04631)", "T1 construct": "partially purified rat brain farnesyl protein transferase (FPT); from tissue; host or cells: rat brain", "T1 sequence (Q02293 whole entry, one chain of several)": "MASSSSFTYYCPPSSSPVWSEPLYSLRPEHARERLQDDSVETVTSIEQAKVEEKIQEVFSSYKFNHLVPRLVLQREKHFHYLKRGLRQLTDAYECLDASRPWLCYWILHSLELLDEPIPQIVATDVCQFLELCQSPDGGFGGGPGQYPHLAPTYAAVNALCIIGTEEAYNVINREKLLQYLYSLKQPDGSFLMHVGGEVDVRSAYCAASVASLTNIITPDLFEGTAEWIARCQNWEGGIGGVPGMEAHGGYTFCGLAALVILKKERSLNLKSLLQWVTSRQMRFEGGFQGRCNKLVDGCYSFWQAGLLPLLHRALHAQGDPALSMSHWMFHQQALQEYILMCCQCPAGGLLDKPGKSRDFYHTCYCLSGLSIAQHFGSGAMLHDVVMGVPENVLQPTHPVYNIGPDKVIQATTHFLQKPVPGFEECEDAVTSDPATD", "experiment": "In vitro enzyme assay: inhibition of Ras-CVLS farnesylation by farnesyl protein transferase (FPT)", "assay_type": "biochemical", "conditions": "H-ras (Ras-CVLS) substrate; methods of WO 95/10515 or WO 95/10516", "procedure": "(§1) 1. In vitro enzyme assays: FPT IC50 (inhibition of farnesyl protein transferase, in vitro enzyme assay) are determined by the methods disclosed in […] or WO 95/10516. […] 2. Cell-based assay. COS IC50 values refer to the COS cells activity inhibition of Ras processing, are determined by the methods disclosed in […] or WO 95/10516.", "units": {"IC50": "µM"}}
{"smiles": "O=C(CON=C1CCCCC1)N1CCC([C@H]2c3ncc(Br)cc3CCc3cc(Cl)cc(Br)c32)CC1", "note": "[Example 10, (+)-4-(3,10-dibromo-8-chloro-6,11-dihydro-5H-benzo[5,6]cyclohepta[1,2-b]pyridin-11(R)-yl)-1-[[[[(cyclohexylidene]amino]]oxy]acetyl]piperidine]", "IC50": 0.035}
{"smiles": "COc1ccc(/C(C)=N/OCC(=O)N2CCC([C@H]3c4ncc(Br)cc4CCc4cc(Cl)cc(Br)c43)CC2)cc1", "note": "[Example 3]", "IC50": 0.18}
{"smiles": "C/C(=N\\OCC(=O)N1CCC([C@H]2c3ncc(Br)cc3CCc3cc(Cl)cc(Br)c32)CC1)c1ccc(Cl)cc1", "note": "[Example 8, (+)-1-[[[[(E)-1-(4-chlorophenyl)ethylidene]amino]oxy]acetyl]-4-(3,10-dibromo-8-chloro-6,11-dihydro-5H-benzo[5,6]cyclohepta[1,2-b]pyridin-11(R)-yl)piperidine]", "IC50": "> 0.18"}
{"smiles": "O=C(CON=C1CCC2(CC1)OCCO2)N1CCC([C@H]2c3ncc(Br)cc3CCc3cc(Cl)cc(Br)c32)CC1", "note": "[Example 11]", "IC50": 0.024}
{"smiles": "CC(C)(C)OC(=O)NOCC(=O)N1CCC([C@H]2c3ncc(Br)cc3CCc3cc(Cl)cc(Br)c32)CC1", "note": "[Example 5, (+)-1,1-Dimethylethyl-N-[2-[4-(3,10-dibromo-8-chloro-6,11-dihydro-5H-benzo[5,6]cyclohepta[1,2-b]pyridin-11(R)-yl)-1-piperidinyl]-2-oxoethoxy]carbamate]", "IC50": 0.17}
{"smiles": "CC(C)=NOCCC(=O)N1CCC([C@H]2c3ncc(Br)cc3CCc3cc(Cl)cc(Br)c32)CC1", "note": "[Example 4, (+)-4-(3,10-dibromo-8-chloro-6,11-dihydro-5H-benzo[5,6]cyclohepta[1,2-b]pyridin-11(R)-yl)-1-[3-[[(1-methylethylidene]amino]oxy]-1-oxopropyl]piperidine]", "IC50": 0.054}
{"smiles": "O=C(CON=C1CCSCC1)N1CCC([C@H]2c3ncc(Br)cc3CCc3cc(Cl)cc(Br)c32)CC1", "note": "[Example 13]", "IC50": 0.013}
{"smiles": "C/C(=N\\OCC(=O)N1CCC([C@H]2c3ncc(Br)cc3CCc3cc(Cl)cc(Br)c32)CC1)c1cccs1", "note": "[Example 9, (+)-4-(3,10-dibromo-8-chloro-6,11-dihydro-5H-benzo[5,6]cyclohepta[1,2-b]pyridin-11(R)-yl)-1-[[[[(E)-1-(2-thienyl)ethylidene]amino]oxy]acetyl]piperidine]", "IC50": 0.15}
{"smiles": "CC(C)=NOCC(=O)N1CCC([C@H]2c3ncc(Br)cc3CCc3cc(Cl)cc(Br)c32)CC1", "note": "[Example 2]", "IC50": 0.0065}
{"smiles": "O=C(CON=C1CCOCC1)N1CCC([C@H]2c3ncc(Br)cc3CCc3cc(Cl)cc(Br)c32)CC1", "note": "[Example 12]", "IC50": 0.012}
{"smiles": "CC(=O)NOCC(=O)N1CCC([C@H]2c3ncc(Br)cc3CCc3cc(Cl)cc(Br)c32)CC1", "note": "[Example 14, (+)-N-[2-[4-(3,10-dibromo-8-chloro-6,11-dihydro-5H-benzo[5,6]cyclohepta[1,2-b]pyridin-11(R)-yl)-1-piperidinyl]-2-oxoethoxy]acetamide]", "IC50": 0.031}
{"smiles": "O=C(CO/N=C/c1cc[n+]([O-])cc1)N1CCC([C@H]2c3ncc(Br)cc3CCc3cc(Cl)cc(Br)c32)CC1", "note": "[Example 6]", "IC50": 0.0036}
{"smiles": "O=C(CO/N=C/c1ccccc1O)N1CCC([C@H]2c3ncc(Br)cc3CCc3cc(Cl)cc(Br)c32)CC1", "note": "[Example 7]", "IC50": 0.37}
{"tested_on": "Ras processing in COS cells", "experiment": "Cell-based assay: inhibition of Ras processing in COS cells", "conditions": "not given", "procedure": "as §1", "units": {"IC50": "µM"}}
{"smiles": "O=C(CO/N=C/c1cc[n+]([O-])cc1)N1CCC([C@H]2c3ncc(Br)cc3CCc3cc(Cl)cc(Br)c32)CC1", "note": "[Example 6]", "IC50": 0.69}
